In ChEMBL document CHEMBL5030556, “Selection and Identification of Novel Antibacterial Agents against Planktonic Growth and Biofilm Formation of Enterococcus faecalis” (J Med Chem, 2021):
Values belong to the compound of their own block, whether it stands above or below them. Active and inactive are the calls of the source. The rule behind the calls is not given here.

How the values were obtained:
[1] = Inhibition of Enterococcus faecalis OG1RF YycG autophosphorylation by Kinase-Glo luminescent kinase assay
Enterococcus faecalis [2] = test: Antimicrobial activity against Enterococcus faecalis OG1RF assessed as reduction in visible bacterial growth incubated for 16 to 20 hrs by microdilution broth assay; assay type: functional; details: time 16-20 hrs
Enterococcus faecalis [3] = test: Antibiofilm activity against Enterococcus faecalis FB-1 assessed as inhibition of biofilm maturation measured after 24 hr; assay type: functional, organism-based
Enterococcus faecalis [4] = test: Bacteriostatic activity against planktonic cells of Enterococcus faecalis OG1RF measured by microdilution broth assay; assay type: functional, organism-based
[5] = Cytotoxicity against african green monkey Vero cells assessed as inhibition of cell growth by MTT assay; assay type: cell-based; details: chlorocebus sabaeus
[6] = Hemolytic activity against human erythrocytes at 50 uM incubated for 1 hr at 570 nm by spectrophotometry; assay type: ADME, tissue-based, Erythrocyte; details: read-out: Activity
Enterococcus faecalis [7] = test: Antibiofilm activity against Enterococcus faecalis FB-1 assessed as eradication of mature biofilm by semiquantitative microtiter assay; assay type: functional, organism-based
Enterococcus faecalis [8] = test: Antibiofilm activity against Enterococcus faecalis FB-1 assessed as inhibition of biofilm maturation at 1.56 uM measured after 24 hr; assay type: functional, organism-based
Enterococcus faecalis [9] = test: Inhibition of biofilm formation of Enterococcus faecalis FB-1 assessed as inhibitory rate of formation at 100 uM for 24 hrs measured at 570 nm by crystal violet staining based spectrophotometry; assay type: functional
Enterococcus faecalis [10] = test: Bactericidal activity against Enterococcus faecalis OG1RF assessed as reduction in bacterial colonies incubated for 16 to 20 hrs by microdilution broth analysis; assay type: functional; details: time 16-20 hrs, read-out: MBC99.9
[11] = Hemolytic activity against human erythrocytes at 200 uM incubated for 1 hr at 570 nm by spectrophotometry; assay type: ADME, tissue-based, Erythrocyte; details: read-out: Activity
Enterococcus faecalis [12] = test: Antibiofilm activity against Enterococcus faecalis assessed as reduction in amount of viable biofilm-embedded bacterial cells at 50 uM measured by YTO 9/PI staining followed by confocal laser scanning microscopy; assay type: functional
Enterococcus faecium [13] = test: Antibacterial activity against Enterococcus faecium EF16M64 assessed as reduction in visible bacterial growth incubated for 16 to 20 hrs by microdilution broth assay; assay type: functional; details: time 16-20 hrs
Enterococcus faecalis [14] = test: Antibacterial activity against Enterococcus faecalis ATCC 29212 assessed as reduction in visible bacterial growth incubated for 16 to 20 hrs by microdilution broth assay; assay type: functional; details: time 16-20 hrs
Streptococcus agalactiae [15] = test: Antibiofilm activity against Streptococcus agalactiae assessed as inhibition of biofilm formation at sub-MIC concentration; assay type: functional, organism-based
Enterococcus faecalis [16] = test: Effect on initial adhesion capacity of Enterococcus faecalis assessed as attached cells at 25 uM for 6 hrs by crystal violet staining based microscopic assay (reference value: 0.412); assay type: functional
Enterococcus faecalis [17] = test: Antibacterial activity against Enterococcus faecalis OG1RF assessed as reduction in visible bacterial growth incubated for 16 to 20 hrs by microdilution broth assay; assay type: functional; details: time 16-20 hrs
[18] = system: Staphylococcus epidermidis; test: Antibacterial activity against Staphylococcus epidermidis ATCC 35984 assessed as reduction in visible bacterial growth incubated for 16 to 20 hrs by microdilution broth assay; assay type: functional; details: time 16-20 hrs
Enterococcus faecalis [19] = test: Antibiofilm activity against Enterococcus faecalis FB-1 assessed as eradication of mature biofilm measured after 72 hrs by semiquantitative microtiter assay; assay type: functional
[20] = system: Staphylococcus epidermidis; test: Antibiofilm activity against Staphylococcus epidermidis assessed as inhibition of biofilm formation at sub-MIC concentration; assay type: functional, organism-based
Enterococcus faecalis [21] = test: Antibacterial activity against Enterococcus faecalis FB-1 assessed as reduction in visible bacterial growth incubated for 16 to 20 hrs by microdilution broth assay; assay type: functional; details: time 16-20 hrs
Staphylococcus aureus [22] = test: Antibacterial activity against Staphylococcus aureus ATCC 29213 assessed as reduction in visible bacterial growth incubated for 16 to 20 hrs by microdilution broth assay; assay type: functional; details: time 16-20 hrs
Staphylococcus aureus [23] = test: Antibiofilm activity against Staphylococcus aureus assessed as inhibition of biofilm formation at sub-MIC concentration; assay type: functional, organism-based
Enterococcus faecalis [24] = test: Antibiofilm activity against Enterococcus faecalis assessed as reduction in amount of viable biofilm-embedded bacterial cells at 50 uM in presence of daptomycin measured by YTO 9/PI staining followed by confocal laser scanning microscopy; assay type: functional
Escherichia coli = test: Antibacterial activity against Escherichia coli […] assessed as reduction in visible bacterial growth incubated for 16 to 20 hrs by microdilution broth assay; assay type: functional; details: time 16-20 hrs
Enterococcus faecalis [25] = test: Binding affinity to Enterococcus faecalis FB-1 YycG assessed as slow association and slow dissociation measured by Octet RED96 response assay
Staphylococcus aureus [26] = test: Antibacterial activity against Staphylococcus aureus ATCC 35556 assessed as reduction in visible bacterial growth incubated for 16 to 20 hrs by microdilution broth assay; assay type: functional; details: time 16-20 hrs
Enterococcus faecalis [27] = test: Antibiofilm activity against Enterococcus faecalis assessed as inhibition of biofilm at 1/2 times of MIC incubated for 24 hrs; assay type: functional; set-up: scale not given: the % may be the effect or the level left
Enterococcus faecalis [28] = test: Antibiofilm activity against Enterococcus faecalis assessed as reduction in amount of viable biofilm-embedded bacterial cells at 50 uM in presence of ampicillin measured by YTO 9/PI staining followed by confocal laser scanning microscopy; assay type: functional
Streptococcus agalactiae [29] = test: Antibacterial activity against Streptococcus agalactiae NSGC64 assessed as reduction in visible bacterial growth incubated for 16 to 20 hrs by microdilution broth assay; assay type: functional; details: time 16-20 hrs
Enterococcus faecium [30] = test: Antibiofilm activity against Enterococcus faecium assessed as inhibition of biofilm formation at sub-MIC concentration; assay type: functional, organism-based
Enterococcus faecalis [31] = test: Antibiofilm activity against Enterococcus faecalis FB-1 assessed as inhibition of biofilm infection at 25 uM by fluid shear system; assay type: functional, organism-based
[32] = system: Staphylococcus epidermidis; test: Antibacterial activity against Staphylococcus epidermidis ATCC 12228 assessed as reduction in visible bacterial growth incubated for 16 to 20 hrs by microdilution broth assay; assay type: functional; details: time 16-20 hrs
Enterococcus faecalis [33] = test: Antibiofilm activity against Enterococcus faecalis FB-1 assessed as eradication of mature biofilm measured after 48 hrs by semiquantitative microtiter assay; assay type: functional

SMILES: O=C(C1=C(O)C(=O)N(c2nnc(SCc3ccccc3)s2)C1c1ccccc1)c1cc2ccccc2o1 (stereo not given)
- IC50 [1]: 22 µM
- MIC (Enterococcus faecalis [2]): > 200 µM
- Activity (Enterococcus faecalis [3]): Dose-Dependent Effect
- Activity (Enterococcus faecalis [4]): inactive
- CC50 [5]: > 200 µM
- hemolysis at 1 h, 50 µM [6]: 4.16%
- inhibition at 100 µM (Enterococcus faecalis [9]): 72.2%
- Activity (Enterococcus faecalis [12]): 26.66%
- MBC (Enterococcus faecalis [10]): > 200 µM
- hemolysis at 1 h, 200 µM [11]: 7.01%

SMILES: O=C(C1=C(O)C(=O)N(c2nnc(SCc3ccccc3)s2)C1c1ccccc1F)c1cc2ccccc2o1 (stereo not given)
- IC50 [1]: > 200 µM
- MIC (Enterococcus faecalis [2]): > 200 µM
- Activity (Enterococcus faecalis [3]): Dose-Dependent Effect
- Activity (Enterococcus faecalis [4]): inactive
- CC50 [5]: > 200 µM
- hemolysis at 1 h, 50 µM [6]: 4.44%
- Activity (Enterococcus faecalis [7]): inactive
- inhibition at 100 µM (Enterococcus faecalis [9]): 73.8%
- MBC (Enterococcus faecalis [10]): > 200 µM
- hemolysis at 1 h, 200 µM [11]: 8.31%

SMILES: COc1cc(C2C(C(=O)c3cc4ccccc4o3)=C(O)C(=O)N2c2nnc(SCc3ccccc3Cl)s2)ccc1O (stereo not given)
- MIC (Enterococcus faecium [13]): > 200 µM
- MIC (Enterococcus faecalis [14]): > 200 µM
- Activity (Streptococcus agalactiae [15]): Active
- OD (Enterococcus faecalis [16]): 0.143
- IC50 [1]: 6.1 µM
- MIC (Enterococcus faecalis [2]): > 200 µM
- Activity (Enterococcus faecalis [3]): Dose-Dependent Effect
- MIC (Enterococcus faecalis [17]): > 200 µM
- MIC [18]: > 200 µM
- Activity (Enterococcus faecalis [19]): 66%
- Activity [20]: Active
- MIC (Enterococcus faecalis [21]): > 200 µM
- Activity (Enterococcus faecalis [4]): inactive
- MIC (Staphylococcus aureus [22]): > 200 µM
- CC50 [5]: > 200 µM
- Activity (Staphylococcus aureus [23]): Active
- Activity (Enterococcus faecalis [24]): 47.16%
- MIC (Escherichia coli): > 200 µM
- hemolysis at 1 h, 50 µM [6]: 2.77%
- Activity (Enterococcus faecalis [25]): Active
- MIC (Staphylococcus aureus [26]): > 200 µM
- Activity (Enterococcus faecalis [27]): 74.8%
- Activity (Enterococcus faecalis [28]): 72.71%
- Activity (Enterococcus faecalis [8]): Active
- inhibition at 100 µM (Enterococcus faecalis [9]): 92.7%
- Activity (Enterococcus faecalis [12]): 52.85%
- MIC (Streptococcus agalactiae [29]): > 200 µM
- MBC (Enterococcus faecalis [10]): > 200 µM
- Activity (Enterococcus faecium [30]): Active
- hemolysis at 1 h, 200 µM [11]: 6.14%
- Activity (Enterococcus faecalis [31]): Active
- MIC [32]: > 200 µM
- Activity (Enterococcus faecalis [33]): 51%

Second part, led by results:

- IC50 [1]: > 200 µM
- MIC (Enterococcus faecalis [2]): > 200 µM
SMILES: O=C(C1=C(O)C(=O)N(c2nnc(SCc3ccc(F)cc3)s2)C1c1cccc(O)c1)c1cc2ccccc2o1 (stereo not given)
- Activity (Enterococcus faecalis [3]): Dose-Dependent Effect
- Activity (Enterococcus faecalis [4]): inactive
- CC50 [5]: > 200 µM
- hemolysis at 1 h, 50 µM [6]: 1.94%
- Activity (Enterococcus faecalis [7]): inactive
- Activity (Enterococcus faecalis [8]): Active
- inhibition at 100 µM (Enterococcus faecalis [9]): 75.5%
- MBC (Enterococcus faecalis [10]): > 200 µM
- hemolysis at 1 h, 200 µM [11]: 3.83%

- IC50 [1]: 1.5 µM
- MIC (Enterococcus faecalis [2]): > 200 µM
SMILES: Cc1ccc(CSc2nnc(N3C(=O)C(O)=C(C(=O)c4cc5ccccc5o4)C3c3cccc(O)c3)s2)cc1 (stereo not given)
- Activity (Enterococcus faecalis [3]): Dose-Dependent Effect
- Activity (Enterococcus faecalis [4]): inactive
- CC50 [5]: > 200 µM
- hemolysis at 1 h, 50 µM [6]: 4.7%
- Activity (Enterococcus faecalis [8]): Active
- inhibition at 100 µM (Enterococcus faecalis [9]): 77.7%
- Activity (Enterococcus faecalis [12]): 46.93%
- MBC (Enterococcus faecalis [10]): > 200 µM
- hemolysis at 1 h, 200 µM [11]: 6.32%
